Each structure is given as a SMILES string. Marks after values point to notes of the source that are not given here.

One assay deals with Glutathione Peroxidase. The assay can be described thus: Glutathione peroxidase activity in Mpv17 −/− cells (LUSVX) grown in presence of MnTBAP or acivicin. The format is cell-based, mouse. An excerpt: (§1) Kidneys from background mice (CFW×Balb/c) and transgenic homozygous Mpv17−/− mice (H. Weiher, T. Noda, D. A. Gray, A. H. Sharpe and R. Jaenisch (1990), Cell, 62, pp. 425434) were obtained at an age of 7 to 9 months and frozen in liquid nitrogen. LUSVX cells (SV40 immortalised fibroblasts from the lungs of Mpv17−/− mice), and NIX1 5 cells (Mpv+/+ cells derived from LUSVX cells by stable transfection of an expression construct for the human Mpv17 cDNA) (A. Reuter. A. Nestl, R. M. Zwacka, J. Tuckermann, R. Waldherr, E. M. Wagner, M. Hoyhtya, A. M. Meyer zum Gottesberge, P. Angel and H. Weiher (1998), Molecular Biology of the Cell, 9, pp. 1675-1682) were grown in DMEM including 10% fetal calf serum (FCS) and 1 μg/ml puromycin (NIX15 cultures) at 6.5% CO2 Cells were harvested by trypsinisation and each 5×10^6 cells were washed in 1.5 ml of phosphate-buffered saline (PBS) before freezing the pellet in liquid nitrogen. Where indicated, Mn(III)tetrakis(4-benzoic acid)porphyrin (MnTBAP), final concentration 10 μM (Y. Noda, M. Kohno, A. Mori and L. Packer (1999), Methods in Enzymology, 299, pp. 28-34) (Calbiochem, Schwalbach, FRG), or the γ-GT inhibitor acivicin (AT-125), final concentration 50 μM (Sigma, Deisenhofen, FRG) were added in DMEM/10% FCS 18 h before harvesting the cells. Kidneys and cells were stored frozen at −80° C.
Cell fractions were prepared by differential centrifugation from 20% tissue and cell homogenates (w/v) in 10 mM potassium phosphate buffer, pH 7.0, containing 0.25 M sucrose, 150 mM potassium chloride, 1 mM EDTA, 2 mM dithiothreitol, and 50 μM phenylmethylsulfonyl fluoride. Enzyme activities were determined at 25° C.: catalase in the 25,000×g (10 min) pellet H. E. Aebi (1983), In Methods of Enzymatic Analysis (ed. H. U. Bergmeyer), Verlag Chemie, Weinheim, pp. 273-276); glutathione peroxidase (GPx) (R. A. Lawrence and R. F. Burk (1976), Biochemical Biophysical Research Communications, 71, pp. 952-958), GSSG reductase (Goldberg, D. M. S. R. F. (1983) In Methods of Enzymatic Analysis (ed. H. U. Bergmeyer) Verlag Chemie, Weinheim, pp. 258-265), glutathione transferase (GST) with 1-chloro-2,4-dinitrobenzene (CDNB) W. H. Habig, M. J. Pabst and W. B. Jakoby (1974), Journal Biological Chemistry, 249, pp. 7130-7139, and superoxide dismutase (SOD) (S. Marklund and G. Marklund (1974), European Journal of Biochemistry, 47, pp. 469-474) in the 105,000×g (45 min) supernatant; γ-glutamyl transpeptidase (γ-GT) ) (S. Marklund and G. Marklund (1974), European Journal of Biochemistry, 47, pp. 469-474) in the resuspended 105,000×g pellet containing 1% Triton X-100. Protein was measured by the method of Bradford using bovine serum albumin as standard (M. M. Bradford (1976), Analytical Biochemistry, 72, pp. 248-254).

Assay [1] has as its target T1, γ-Glutamyl Transpeptidase (Mus musculus, UniProt Q60928).
T1 construct: in the resuspended 105,000×g pellet containing 1% Triton X-100; endogenous in cells; host or cells: LUSVX cells (SV40-immortalised lung fibroblasts from Mpv17−/− mice)
Nature of the assay: γ-glutamyl transpeptidase activity in Mpv17 −/− cells (LUSVX) grown in presence of MnTBAP or acivicin. In kind it is cell-based.
Excerpt: as §1
Cell fractions were prepared by differential centrifugation from 20% tissue and cell homogenates (w/v) in 10 mM potassium phosphate buffer, pH 7.0, containing 0.25 M sucrose, 150 mM potassium chloride, 1 mM EDTA, 2 mM dithiothreitol, and 50 μM phenylmethylsulfonyl fluoride. […] Protein was measured by the method of Bradford using bovine serum albumin as standard (M. M. Bradford (1976), Analytical Biochemistry, 72, pp. 248-254).

The test system of a further assay is pGPx mRNA. The assay can be described thus: pGPx mRNA level by quantitative RT-PCR in Mpv17−/− cells. Conditions: Mpv17−/− cells with acivicin (γ-GT inhibition), FIG. 2B; β-actin reference. The format is cell-based, mouse. An excerpt: (§2) Kidneys from background mice (CFW×Balb/c) and transgenic homozygous Mpv17-/- mice ([…]. Noda, D. A. Gray, A. H. Sharpe and R. Jaenisch (1990), Cell, 62, pp. 425434) were obtained at an age of 7 to 9 months and frozen in liquid nitrogen. LUSVX cells (SV40 immortalised fibroblasts from the lungs of Mpv17-/- mice), and NIX1 5 cells (Mpv+/+ cells derived from LUSVX cells by stable transfection of an expression construct for the human Mpv17 cDNA) (A. Reuter. […]. Tuckermann, […]. Wagner, […]. Meyer zum Gottesberge, P. Angel and […] (1998), Molecular Biology of the Cell, 9, pp. 1675-1682) were grown in DMEM including 10% fetal calf serum (FCS) and 1 μg/ml puromycin (NIX15 cultures) at 6.5% CO2 Cells were harvested by trypsinisation and each 5×10^6 cells were washed in 1.5 ml of phosphate-buffered saline (PBS) before freezing the pellet in liquid nitrogen. […] Noda, M. Kohno, A. Mori and L. […] Kidneys and cells were stored frozen at -80° C. mRNA levels were also measured. In particular, levels of mRNA were determined by quantitative RT-PCR. […] Amplified mRNA was separated on 1.5% agarose gels in Tris borate buffer (F. M. Ausubel (1995) Short protocols in molecular biology: a compendium of methods from current protocols in molecular biology. Wiley Press, New York) visualized with vista green (Amersham, Freiburg, FRG) and quantified with a FLA2000 Imager (FUJI).

The test system of the next assay is SOD mRNA. Nature of the assay: SOD mRNA levels by quantitative RT-PCR in Mpv17−/− cells. The format is cell-based, mouse. The settings on record: Mpv17−/− cells with acivicin (γ-GT inhibition), FIG. 2B; β-actin reference.
Excerpt: as §2

The target in the next assay is T2, γ-GT (Rattus norvegicus, UniProt P07314).
T2 construct: oxidation damage during short-term ischemia of rat kidney
The settings on record: short-term ischemia of rat kidney; Cutrin et al. 2000; cited from earlier work.

Setting [2] is: Mpv17−/− cells (LUSVX) grown in the presence of MnTBAP.
Where [3] appears, read: LUSVX cells, MnTBAP 10 μM or acivicin 50 μM added 18 h before harvesting, means ± SEM (n = 3).

T1 sequence (Q60928 1-379 limits assumed): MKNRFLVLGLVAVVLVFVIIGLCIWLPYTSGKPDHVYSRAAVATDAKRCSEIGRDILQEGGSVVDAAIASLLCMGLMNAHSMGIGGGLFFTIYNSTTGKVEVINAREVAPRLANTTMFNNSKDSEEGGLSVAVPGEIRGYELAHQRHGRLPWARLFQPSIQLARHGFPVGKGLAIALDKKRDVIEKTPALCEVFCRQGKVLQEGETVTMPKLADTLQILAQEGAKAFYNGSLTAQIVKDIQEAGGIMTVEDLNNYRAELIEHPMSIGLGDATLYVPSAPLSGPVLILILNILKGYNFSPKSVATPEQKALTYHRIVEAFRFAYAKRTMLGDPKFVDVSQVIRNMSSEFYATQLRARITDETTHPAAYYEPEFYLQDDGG
T1 sequence (Q60928 380-568 limits assumed): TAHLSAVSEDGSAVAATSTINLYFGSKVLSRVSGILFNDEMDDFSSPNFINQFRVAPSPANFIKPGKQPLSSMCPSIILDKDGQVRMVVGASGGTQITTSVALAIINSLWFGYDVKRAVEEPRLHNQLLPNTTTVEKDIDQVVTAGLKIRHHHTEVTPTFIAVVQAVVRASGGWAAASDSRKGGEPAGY
T2 sequence (P07314 1-379 limits assumed): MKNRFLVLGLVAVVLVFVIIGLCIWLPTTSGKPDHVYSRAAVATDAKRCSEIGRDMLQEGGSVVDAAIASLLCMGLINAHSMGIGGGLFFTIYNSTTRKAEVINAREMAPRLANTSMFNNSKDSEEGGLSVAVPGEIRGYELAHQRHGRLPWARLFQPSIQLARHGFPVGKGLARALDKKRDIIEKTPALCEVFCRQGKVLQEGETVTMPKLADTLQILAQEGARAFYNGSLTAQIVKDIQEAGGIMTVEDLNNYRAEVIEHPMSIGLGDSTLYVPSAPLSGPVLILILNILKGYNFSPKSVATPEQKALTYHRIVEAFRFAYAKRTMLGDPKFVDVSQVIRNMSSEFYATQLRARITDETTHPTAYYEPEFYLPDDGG
T2 sequence (P07314 380-568 limits assumed): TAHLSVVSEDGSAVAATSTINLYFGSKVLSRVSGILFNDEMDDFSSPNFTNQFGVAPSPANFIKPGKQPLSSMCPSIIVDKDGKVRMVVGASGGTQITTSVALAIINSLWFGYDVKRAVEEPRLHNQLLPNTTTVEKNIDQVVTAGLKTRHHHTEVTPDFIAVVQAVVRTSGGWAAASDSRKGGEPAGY

For the compound `O=C(O)c1ccc(-c2c3nc(c(-c4ccc(C(=O)O)cc4)c4ccc([n-]4)c(-c4ccc(C(=O)O)cc4)c4nc(c(-c5ccc(C(=O)O)cc5)c5ccc2[n-]5)C=C4)C=C3)cc1.[Mn+3]` [MnTBAP, Mn(III)tetrakis(4-benzoic acid)porphyrin], in the assay with Glutathione Peroxidase (LUSVX cells, MnTBAP 10 μM or acivicin 50 μM, 18 h, relative to untreated LUSVX), the “Glutathione Peroxidase activity, % of controls” value was “(104%)^a)”. The “change of GPx activity (in words)” value in the assay on Glutathione Peroxidase (setting [2]) is on record as “Neither γ-GT nor GPx activities were changed significantly”. The “γ-Glutamyl Transpeptidase activity” value in assay [1] (setting [3]) was 0.94 ± 0.03 nmol/min per mg of protein. The “γ-Glutamyl Transpeptidase activity, % of controls” value in assay [1] (LUSVX cells, MnTBAP 10 μM, 18 h, relative to untreated LUSVX) was “(95%)”. Also, in assay [1] (setting [2]), the “change of γ-GT activity (in words)” value was “Neither γ-GT nor GPx activities were changed significantly”.

In the case of `N[C@H](C(=O)O)[C@@H]1CC(Cl)=NO1` [acivicin], the “Glutathione Peroxidase activity” value in the assay with Glutathione Peroxidase (setting [3]) is 53.5 ± 2.0 nmol/min per mg of protein. Besides, the “increase of GPx activity” value in the assay with Glutathione Peroxidase (Mpv17−/− cells grown in the presence of acivicin) is recorded as “about 1.6 fold”. The activity at 50 µM with Glutathione Peroxidase (Mus musculus, LUSVX cells, MnTBAP 10 μM or acivicin 50 μM, 18 h, relative to untreated LUSVX, read-out: Glutathione Peroxidase activity, % of controls) came to 162%. In addition, in the assay with pGPx mRNA, the “pGPx mRNA level” value is reported as “significant increase”. In addition, in the assay on SOD mRNA, the “SOD mRNA levels” value was “significant increase”. The “oxidation damage caused by γ-GT upregulation” value on γ-GT is listed as “inhibitable”.
